# Experimental data: patent publication US20090312194A1, “SELECTION OF PERSONALIZED CANCER THERAPY REGIMENS USING INTERFERING RNA FUNCTIONAL SCREENING” (OREGON HEALTH & SCIENCE UNIVERSITY, priority 2008, published 2009)
# pIC50: −log10 of the molar value.
# Columns and labels:
# [1] = test system: primary cells from patient samples; assay: Cell viability assay (MTS) of primary patient cells with inhibitor dose gradients; assay type: cell-based, human; conditions: cells from CMML patient 07-079, three days
# [2] = test system: BA/F3 cells expressing MPL W515L; assay: Proliferation assay, factor-independent BA/F3 cells expressing MPL W515L; assay type: cell-based; conditions: three days
# Protocol: (§1) 96 AQueous One solution cell proliferation assay (PROMEGA®). […] Total viable cells were determined every day for 1 week using PI exclusion on a Guava cell counter (GUAVA TECHNOLOGIES®). […] Ten days later, colonies were counted manually or using a GELCOUNT® automated colony counter (OXFORD OPTRONIX®, Oxford, UK).
# (§2) MPL was then cloned into a Gateway compatible version of MSCV-IRES-GFP (MIG) by performing an LR recombination reaction. […] One milliliter of viral supernatant was mixed with polybrene (5 mg/ml), HEPES (7.5 mM), and 10^6 BA/F3 cells and placed in a centrifuge at 2500 RPM for 90 minutes at 30° C.
# [3] = test system: primary cells from patient samples; assay: Colony assay of primary patient cells in methocult; assay type: cell-based, human; conditions: ten days
# Protocol: For determination of factor-independent growth, parental BA/F3 cells as well as BA/F3 cells expressing […], or W515L were washed three times and 1 million cells were seeded into triplicate wells of a 6-well plate in R10. Total viable cells were determined every day for 1 week using PI exclusion on a Guava cell counter (GUAVA TECHNOLOGIES®). For colony assays, 200,000 primary cells from patient samples were incubated in the presence of dose gradients of AG490, SU11248, or PTK787 in methocult containing IL-3, GM-CSF, and SCF ([…] TECHNOLOGIES®). Ten days later, colonies were counted manually or using a GELCOUNT® automated colony counter (OXFORD OPTRONIX®, Oxford, UK). For siRNA functional screens on patient samples, a Student's t test was carried out for each well in comparison to both single and pooled non-specific siRNA controls. The mean of the two-tailed p-value was determined for consideration of significance. […] For cell proliferation, cell viability, and colony assays, a Student's t test was carried out for each dose or time point compared with the relevant control cell line or the no drug control.
# [4] = test system: BA/F3 cells expressing MPL 1886InsGG; assay: Proliferation assay, factor-independent BA/F3 cells expressing MPL 1886InsGG; assay type: cell-based; conditions: factor-independent BA/F3 MPL 1886InsGG, three days
# Protocol: as §1, §2
# HEL cells = assay: MTS proliferation assay with kinase inhibitors, HEL cells; assay type: cell-based; conditions: HEL cells (JAK2 V617F), 72 hours
# Protocol: (§3) K562 cells were obtained from American Type Culture Collection (Manassas, Va.). CMK and HEL cells were obtained from the German National Resource Centre for Biological Material (DSMZ). […] For proliferation assays, cells were incubated for 72 hours in the presence of JAK Inhibitor I, JAK3 inhibitor III, AG-490, PP2, or Src Kinase Inhibitor I (EMD BIOSCIENCES®, San Diego, Calif.), and the number of viable cells was determined with the […] 96® AQueous One solution cell proliferation assay (PROMEGA®, Madison, Wis.). For HMC1.1 cell stimulation, cells were serum starved overnight in RPMI supplemented with 0.1% bovine serum albumin, L-glutamine, and penicillin/streptomycin. The following day, cells were stimulated for five minutes with 100 ng/ml recombinant stem cell factor (Peprotech, Rocky Hill, N.J.).
# as §1
# HMC1.1 cells = assay: MTS proliferation assay with small-molecule kinase inhibitors, HMC1.1 cells; assay type: cell-based, human; conditions: for pIC50: 72 hours, MTS assay
# Protocol: as §3
# (§4) For tyrosine kinase siRNA library knockdown experiments, a Student's t test was carried out for each well in comparison to both single and pooled non-specific siRNA controls. The mean of the two-tailed p-value was determined for consideration of significance and data points with p-value less than 0.05 and mean value less than 70% of non-specific controls were considered significant. For cell proliferation assays, a Student's t test was carried out for each dose point comparing HMC1.1 to K562 cell viability.
# [5] = test system: Patient 07-079, ASM with associated CMML; assay: Midostaurin treatment of patient 07-079; assay type: in vivo, human; conditions: patient 07-079, midostaurin 50 mg bid, briefly in combination with hydroxyurea
# Protocol: White blood cell counts were monitored over 9 days. Normal white blood cell counts range from 4−12×10^3 per ml. […] Cells were then stimulated for 15 minutes with thrombopoietin (10 ng/ml) and cell lysates were subjected to immunoblot analysis for phospho or total-JAK2 as well as β-actin. […] Cell proliferation was determined after three days. Values represent the percent mean (normalized to untreated control wells)±s.e.m. (n=3).
# K562 cells = assay: MTS proliferation assay with small-molecule kinase inhibitors, K562 control cells; assay type: cell-based; conditions: concentrations up to and including 10 μM
# Protocol: as §3, §4
# [6] = biological target: MPL^1886InsGG (thrombopoietin receptor with two base-pair GG insertion in exon 12) (human) (UniProt P40238); assay: cell-based or functional assay; conditions: scale: fold lower dose of thrombopoietin than MPL^WT
compound,measurement,setting,value
N#C/C(=C\c1ccc(O)c(O)c1)C(=O)NCc1ccccc1 [AG-490],sensitivity in cell viability assay,[1],Strong sensitivity
same,sensitivity to inhibitor,[2],strong sensitivity
same,sensitivity in colony assay,"[3]; cells from CMML patient 07-079, methocult",Strong sensitivity
same,sensitivity to inhibitor,[4],strong sensitivity
same,pIC50,HEL cells,4.35
same,pIC50,HMC1.1 cells,< 4.30
CC(C)(C)n1nc(-c2ccc(Cl)cc2)c2c(N)ncnc21 [PP2],pIC50,HMC1.1 cells,5.82
Clc1ccc(Nc2nnc(Cc3ccncc3)c3ccccc23)cc1 [PTK787],colony formation,"[3]; cells from AML patient 07-008, methocult with IL-3, GM-CSF, SCF",blocked by each drug at low nanomolar concentrations
COc1cc2ncnc(Nc3ccc(Oc4ccccc4)cc3)c2cc1OC [SRC inhibitor I],pIC50,HMC1.1 cells,5.30
CO[C@@H]1[C@H](N(C)C(=O)c2ccccc2)C[C@H]2O[C@]1(C)n1c3ccccc3c3c4c(c5c6ccccc6n2c5c31)C(=O)NC4 [midostaurin],period to normalization of WBC counts,[5],5 days
JAK inhibitor I,sensitivity to inhibitor,K562 cells,resistant
same,pIC50,HMC1.1 cells,5.30
same,viability in combination with PP2,"HMC1.1 cells; JAK inhibitor I dose range plus 1.5 μM PP2, compared with JAK inhibitor alone",lower viability readings at all dose points
same,reduction of viability and proliferation,HMC1.1 cells; maximal reduction despite increasing concentrations,~50%
recombinant thrombopoietin (Peprotech) (ligand),"phosphorylation of JAK2, STAT3, STAT5, ERK and AKT (immunoblot) after thrombopoietin stimulation of BA/F3 cells",[6],10
